Laboratory results: US10233187B2, “Fused bicyclic compounds for the treatment of disease” (AKARNA THERAPEUTICS, LTD., priority 2014, dated 2019)

What follows are molecules tested against FXR (Homo sapiens (Human), UniProt Q96RI1) (assay: FXR Agonist Assay (Gaussia luciferase reporter)). Conditions: cells incubated with compound at 37° C. for 20 hours; Gaussia luciferase luminescence; 10-point dose-response in duplicate.
Format: cell-based
Procedure: Starting from 3.33 mM of compound in DMSO solution, a 10-point 3-fold serial dilution was made by diluting 5 μL of compound into 10 μL of DMSO. The serially diluted compound was then diluted 1:33 into DMEM. This medium was then diluted ten-fold into the culture medium with the cells (10 μL/well). All concentration points are assayed in duplicate. Plates were incubated at 37° C. for 20 hours. After the incubation, 20 μL of culture medium were removed from each well and mixed with 50 μL of assay solution (Pierce™ Gaussia Luciferase Flash Assay Kit). The luminescence was measured immediately after addition of the Luc substrate with an Envision microplate reader. The raw data was uploaded to CDD and dose-response curves were generated using the Levenberg-Marquardt algorithm integrated into CDD. A negative control DMSO is included on each plate and used to normalize the data with the CDD built-in normalization function.

Sequence of FXR (Q96RI1 whole entry, species assumed): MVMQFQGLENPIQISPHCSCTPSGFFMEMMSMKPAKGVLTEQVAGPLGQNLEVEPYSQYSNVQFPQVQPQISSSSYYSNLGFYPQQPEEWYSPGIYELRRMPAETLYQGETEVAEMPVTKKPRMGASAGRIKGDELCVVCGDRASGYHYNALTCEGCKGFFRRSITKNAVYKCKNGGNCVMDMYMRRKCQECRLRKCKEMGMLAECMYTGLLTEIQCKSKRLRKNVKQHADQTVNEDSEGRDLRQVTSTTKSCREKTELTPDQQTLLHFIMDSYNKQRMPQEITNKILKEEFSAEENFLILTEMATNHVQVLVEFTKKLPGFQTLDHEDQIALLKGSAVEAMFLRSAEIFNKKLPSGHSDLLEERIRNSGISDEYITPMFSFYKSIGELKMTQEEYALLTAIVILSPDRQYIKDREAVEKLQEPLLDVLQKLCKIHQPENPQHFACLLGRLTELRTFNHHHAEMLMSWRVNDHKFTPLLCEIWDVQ

SMILES | EC50 [nM]
CCOC(=O)C1=CN(C(=O)c2ccc(F)c(F)c2)CC(C)(C)c2c(C(C)C)n[nH]c21 [Example 5] | < 200
CCOC(=O)C1=CN(C(=O)c2cc3ccccc3s2)CC(C)(C)c2cn[nH]c21 [Example 44] | 200 to 1000
CCOC(=O)C1=CN(C(=O)c2ccc3c(c2)OC(F)(F)O3)CC(C)(C)c2cn[nH]c21 [Example 47] | 1000 to 10000
CCCCc1n[nH]c2c1C(C)(C)CN(C(=O)c1ccc(F)c(F)c1)C=C2C(=O)OCC [Example 39] | < 200
CC(C)Cc1n[nH]c2c1C(C)(C)CN(C(=O)c1cccc(F)c1)C=C2C(=O)OC(C)C [Example 25] | < 200
COCCc1n[nH]c2c1C(C)(C)CN(C(=O)c1ccc(F)c(F)c1)C=C2C(=O)OC(C)C [Example 28] | < 200
CCCc1n[nH]c2c1C(C)(C)CN(C(=O)c1ccncc1)C=C2C(=O)OC(C)C [Example 20] | 200 to 1000
CC(C)NC(=O)C1=CN(C(=O)c2ccc(F)c(F)c2)CC(C)(C)c2cn[nH]c21 [Example 45] | 200 to 1000
CCOC(=O)C1=CN(C(=O)c2ccc(F)c(F)c2)CC(C)(C)c2c(CC)n[nH]c21 [Example 41] | < 200
CC(C)OC(=O)C1=CN(C(=O)c2ccc(Cl)c(Cl)c2)CC(C)(C)c2cn[nH]c21 [Example 42] | < 200
CC(C)OC(=O)C1=CN(C(=O)c2ccc(F)c(F)c2)CC(C)(C)c2cn[nH]c21 [Example 46] | 200 to 1000
CCOC(=O)C1=CN(C(=O)c2ccc3ccccc3c2)CC(C)(C)c2cn[nH]c21 [Example 43] | < 200
CCOC(=O)C1=CN(C(=O)c2ccc(F)c(F)c2)CC(C)(C)c2cn[nH]c21 [Example 4, (E)-ethyl 6-(3,4-difluorobenzoyl)-4,4-dimethyl-1,4,5,6-tetrahydropyrazolo[3,4-d]azepine-8-carboxylate] | 200 to 1000
CCOC(=O)C1=CN(C(=O)C2CCCCC2)CC(C)(C)c2cn[nH]c21 [Example 48] | 1000 to 10000
CCOC(=O)C1=CN(C(=O)c2cccc(F)c2)CC(C)(C)c2cn[nH]c21 [Example 49] | 200 to 1000
CCCCc1n[nH]c2c1C(C)(C)CN(C(=O)c1cccc(F)c1)C=C2C(=O)OC(C)C [Example 33] | < 200
CCCCc1n[nH]c2c1C(C)(C)CN(C(=O)c1ccc(F)c(F)c1)C=C2C(=O)OC(C)C [Example 31] | < 200
CC(C)OC(=O)C1=CN(C(=O)c2ccc(F)c(CN3CCOCC3)c2)CC(C)(C)c2c(C(F)(F)F)n[nH]c21 [Example 12] | < 200
CCCc1n[nH]c2c1C(C)(C)CN(C(=O)c1ccc(F)c(F)c1)C=C2C(=O)OCC [Example 40] | < 200
CCOC(=O)C1=CN(C(=O)c2ccc(F)c(F)c2)CC(C)(C)c2c(-c3ccc(F)cc3)n[nH]c21 [Example 3, (E)-ethyl 6-(3,4-difluorobenzoyl)-3-(4-fluorophenyl)-4,4-dimethyl-1,4,5,6-tetrahydropyrazolo[3,4-d]azepine-8-carboxylate] | < 200
CC(C)Cc1n[nH]c2c1C(C)(C)CN(C(=O)c1ccc(F)c(F)c1)C=C2C(=O)OC(C)C [Example 26] | < 200
COCCc1n[nH]c2c1C(C)(C)CN(C(=O)c1cccc(F)c1)C=C2C(=O)OC(C)C [Example 27] | < 200
CCOC(=O)C1=CN(C(=O)c2ccc(F)c(F)c2)CC(C)(C)c2c(C)n[nH]c21 [Example 2, (E)-ethyl 6-(3,4-difluorobenzoyl)-3,4,4-trimethyl-1,4,5,6-tetrahydropyrazolo[3,4-d]azepine-8-carboxylate] | < 200

Next, values leading:

EC50 [nM] | SMILES
200 to 1000 | CCCCc1n[nH]c2c1C(C)(C)CN(C(=O)C1CCCCC1)C=C2C(=O)OC(C)C [Example 30]
200 to 1000 | CC(C)OC(=O)C1=CN(C(=O)N2CCN(C)CC2)CC(C)(C)c2c(C(F)(F)F)n[nH]c21 [Example 22]
< 200 | CCCc1n[nH]c2c1C(C)(C)CN(C(=O)c1cccc(F)c1)C=C2C(=O)OC(C)C [Example 37]
200 to 1000 | CCCc1n[nH]c2c1C(C)(C)CN(C(=O)C1CCOCC1)C=C2C(=O)OC(C)C [Example 36]
< 200 | CCCc1n[nH]c2c1C(C)(C)CN(C(=O)c1ccc(F)c(F)c1)C=C2C(=O)OC(C)C [Example 38]
< 200 | CC(C)OC(=O)C1=CN(C(=O)c2cc(F)c(F)cc2Cl)CC(C)(C)c2c(C(F)(F)F)n[nH]c21 [Example 11]
< 200 | CCCc1n[nH]c2c1C(C)(C)CN(C(=O)C1CCCCC1)C=C2C(=O)OC(C)C [Example 35]
200 to 1000 | CCCc1n[nH]c2c1C(C)(C)CN(C(=O)c1cccnc1)C=C2C(=O)OC(C)C [Example 18]
< 200 | CC(C)NC(=O)C1=CN(C(=O)c2ccc(F)c(F)c2)CC(C)(C)c2c(C(F)(F)F)n[nH]c21 [Example 14]
< 200 | CC(C)OC(=O)C1=CN(C(=O)c2cccc(F)c2)CC(C)(C)c2c(C(F)(F)F)n[nH]c21 [Example 23]
< 200 | CC(C)OC(=O)C1=CN(C(=O)c2ccc(OCCCN3CCOCC3)cc2)CC(C)(C)c2c(C(F)(F)F)n[nH]c21 [Example 9]
200 to 1000 | CCCc1n[nH]c2c1C(C)(C)CN(C(=O)N1CCOCC1)C=C2C(=O)OC(C)C [Example 34]
< 200 | CC(C)OC(=O)C1=CN(C(=O)c2ccc(F)cc2F)CC(C)(C)c2c(C(F)(F)F)n[nH]c21 [Example 16]
200 to 1000 | CC(C)OC(=O)C1=CN(C(=O)c2cccc(OCCN3CCOCC3)c2)CC(C)(C)c2c(C(F)(F)F)n[nH]c21 [Example 7]
< 200 | CC(C)OC(=O)C1=CN(C(=O)c2ccc(OCCN3CCOCC3)cc2)CC(C)(C)c2c(C(F)(F)F)n[nH]c21 [Example 13]
< 200 | CC(C)OC(=O)C1=CN(C(=O)c2ccc(F)cc2)CC(C)(C)c2c(C(F)(F)F)n[nH]c21 [Example 17]
< 200 | CCCCc1n[nH]c2c1C(C)(C)CN(C(=O)N1CCOCC1)C=C2C(=O)OC(C)C [Example 29]
1000 to 10000 | CCCc1n[nH]c2c1C(C)(C)CN(C(=O)c1ccccn1)C=C2C(=O)OC(C)C [Example 19]
< 200 | CC(C)NC(=O)C1=CN(C(=O)c2ccc(OCCN3CCOCC3)cc2)CC(C)(C)c2c(C(F)(F)F)n[nH]c21 [Example 8]
200 to 1000 | CCCc1n[nH]c2c1C(C)(C)CN(C(=O)c1ccc(C(F)(F)F)nc1)C=C2C(=O)OC(C)C [Example 21]
< 200 | CC(C)OC(=O)C1=CN(C(=O)c2ccc(F)c(F)c2)CC(C)(C)c2c(C(F)(F)F)n[nH]c21 [Example 24]
< 200 | CC(=O)c1n[nH]c2c1C(C)(C)CN(C(=O)c1ccc(F)c(F)c1)C=C2C(=O)OC(C)C [Example 10]
200 to 1000 | CCCCc1n[nH]c2c1C(C)(C)CN(C(=O)C1CCOCC1)C=C2C(=O)OC(C)C [Example 32]
200 to 1000 | CC(C)OC(=O)C1=CN(C(=O)c2ccc(F)c(OCCN3CCOCC3)c2)CC(C)(C)c2c(C(F)(F)F)n[nH]c21 [Example 6]
